Assay type in all cases: biochemical
The target in one experiment is T1, recombinant human VAP-1 (Homo sapiens, UniProt Q16853).
T1 construct: purchased R&D systems
T1 sequence (Q16853 1-763): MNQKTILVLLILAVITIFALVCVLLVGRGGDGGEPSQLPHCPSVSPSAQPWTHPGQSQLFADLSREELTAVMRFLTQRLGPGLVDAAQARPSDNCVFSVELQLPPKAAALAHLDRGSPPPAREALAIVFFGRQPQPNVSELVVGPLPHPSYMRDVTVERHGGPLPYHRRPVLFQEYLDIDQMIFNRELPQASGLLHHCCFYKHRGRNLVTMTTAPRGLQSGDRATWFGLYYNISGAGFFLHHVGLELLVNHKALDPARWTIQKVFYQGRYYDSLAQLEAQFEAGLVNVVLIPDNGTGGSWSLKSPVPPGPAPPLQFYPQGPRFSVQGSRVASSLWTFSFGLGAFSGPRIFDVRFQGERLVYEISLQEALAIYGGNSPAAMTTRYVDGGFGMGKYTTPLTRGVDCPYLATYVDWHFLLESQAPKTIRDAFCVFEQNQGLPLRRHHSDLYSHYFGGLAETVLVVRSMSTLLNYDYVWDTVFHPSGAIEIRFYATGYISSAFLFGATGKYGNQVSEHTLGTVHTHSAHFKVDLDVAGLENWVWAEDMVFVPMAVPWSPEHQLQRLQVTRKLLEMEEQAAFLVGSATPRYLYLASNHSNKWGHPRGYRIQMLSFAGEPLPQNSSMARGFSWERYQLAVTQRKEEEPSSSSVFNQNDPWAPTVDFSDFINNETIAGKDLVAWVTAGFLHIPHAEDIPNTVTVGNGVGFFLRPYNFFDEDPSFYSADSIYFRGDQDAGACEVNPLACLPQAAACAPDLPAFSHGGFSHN
Nature of the experiment: Activity on recombinant human VAP-1, Amplex Red HRP-coupled hydrogen peroxide assay, benzylamine substrate. The settings on record: recombinant human VAP-1, benzylamine substrate, read-out: Inhibitory Activity (IC50, nM) human VAP-1. In a few lines: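 Enzyme in 50 mM sodium phosphate (pH 7.4) is exposed to test compound for 30 min at 37 °C. Benzylamine (1 mM) with HRP and Amplex Red then starts the reaction, and the fluorescence rate, relative to a DMSO-only control, gives IC50.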

For experiment [1], the target named is T2, recombinant human DAO (diamine oxidase) (Homo sapiens, UniProt P19801).
T2 construct: purchased R&D systems
T2 sequence (P19801 20-751): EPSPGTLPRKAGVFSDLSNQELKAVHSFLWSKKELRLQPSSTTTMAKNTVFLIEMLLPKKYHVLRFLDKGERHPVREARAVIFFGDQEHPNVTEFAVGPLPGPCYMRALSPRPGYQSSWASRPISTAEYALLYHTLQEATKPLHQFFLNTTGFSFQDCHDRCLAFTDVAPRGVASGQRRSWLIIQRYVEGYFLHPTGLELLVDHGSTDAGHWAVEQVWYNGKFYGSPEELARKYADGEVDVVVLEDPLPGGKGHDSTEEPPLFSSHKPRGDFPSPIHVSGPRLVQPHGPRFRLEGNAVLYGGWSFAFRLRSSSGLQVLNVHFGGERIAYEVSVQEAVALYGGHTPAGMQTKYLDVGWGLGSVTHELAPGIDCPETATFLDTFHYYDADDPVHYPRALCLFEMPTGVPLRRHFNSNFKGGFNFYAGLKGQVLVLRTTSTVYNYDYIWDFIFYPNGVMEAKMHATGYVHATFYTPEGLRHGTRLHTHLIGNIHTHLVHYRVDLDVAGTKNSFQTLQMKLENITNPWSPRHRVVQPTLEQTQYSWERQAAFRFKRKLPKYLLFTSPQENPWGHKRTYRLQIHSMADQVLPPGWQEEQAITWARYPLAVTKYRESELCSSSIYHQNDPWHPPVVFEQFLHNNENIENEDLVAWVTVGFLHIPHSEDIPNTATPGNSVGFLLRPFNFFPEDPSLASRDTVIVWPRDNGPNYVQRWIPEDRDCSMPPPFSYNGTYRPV
Nature of the experiment: Activity on recombinant human DAO, Amplex Red method, 1 mM putrescine substrate. The conditions noted are these: recombinant human DAO, read-out: Inhibitory Activity (IC50, nM) DAO. In a few lines: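 Inhibition of recombinant human DAO (diamine oxidase, R&D systems) was assessed with the Amplex Red Hydrogen Peroxide Assay Kit. Hydrogen peroxide produced from 1 mM putrescine was detected through an HRP-coupled reaction that converts Amplex Red into fluorescent resorufin, read at 544 nm excitation and 590 nm emission. IC50 values came from four-parameter logistic fits in GraphPad Prism.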

Experiment [2] deals with T3, recombinant human MAO-B (monoamine oxidase-B) (Homo sapiens, UniProt P27338).
T3 construct: purchased Sigma-Aldrich
T3 sequence (P27338 1-520): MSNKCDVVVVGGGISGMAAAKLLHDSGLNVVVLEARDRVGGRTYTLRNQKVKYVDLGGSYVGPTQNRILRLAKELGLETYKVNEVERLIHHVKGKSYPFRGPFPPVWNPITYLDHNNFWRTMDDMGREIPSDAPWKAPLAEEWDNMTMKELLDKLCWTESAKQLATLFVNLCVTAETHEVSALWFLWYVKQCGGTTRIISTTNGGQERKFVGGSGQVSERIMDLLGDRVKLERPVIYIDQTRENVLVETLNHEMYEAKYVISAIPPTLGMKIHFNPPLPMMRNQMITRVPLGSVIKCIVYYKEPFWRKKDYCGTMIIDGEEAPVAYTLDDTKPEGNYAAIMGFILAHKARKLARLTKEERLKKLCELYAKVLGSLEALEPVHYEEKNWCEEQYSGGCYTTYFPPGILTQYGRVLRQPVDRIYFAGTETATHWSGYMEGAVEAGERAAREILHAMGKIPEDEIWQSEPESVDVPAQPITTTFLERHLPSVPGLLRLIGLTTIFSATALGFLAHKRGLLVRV
In words: Activity on recombinant human MAO-B, Amplex Red method, 1 mM benzylamine substrate. The conditions noted are these: read-out: Inhibitory Activity (IC50, nM) MAO-B. The method in brief:
(§1)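 Enzyme in pH 7.4 phosphate buffer; 30 min, 37° C with compound (DMSO <1%); start with 200 uM Amplex Red + 1 U/mL HRP + tyramine 0.5 mM (MAO-A) or benzylamine 1 mM (MAO-B); kinetic read ex 544/em 590, 1-2 h; % rate decrease vs DMSO control → IC50, 4-parameter fit.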

Experiment [3] concerns the target T4, recombinant human MAO-A (monoamine oxidase-A) (Homo sapiens, UniProt P21397).
T4 construct: purchased Sigma-Aldrich
T4 sequence (P21397 1-527): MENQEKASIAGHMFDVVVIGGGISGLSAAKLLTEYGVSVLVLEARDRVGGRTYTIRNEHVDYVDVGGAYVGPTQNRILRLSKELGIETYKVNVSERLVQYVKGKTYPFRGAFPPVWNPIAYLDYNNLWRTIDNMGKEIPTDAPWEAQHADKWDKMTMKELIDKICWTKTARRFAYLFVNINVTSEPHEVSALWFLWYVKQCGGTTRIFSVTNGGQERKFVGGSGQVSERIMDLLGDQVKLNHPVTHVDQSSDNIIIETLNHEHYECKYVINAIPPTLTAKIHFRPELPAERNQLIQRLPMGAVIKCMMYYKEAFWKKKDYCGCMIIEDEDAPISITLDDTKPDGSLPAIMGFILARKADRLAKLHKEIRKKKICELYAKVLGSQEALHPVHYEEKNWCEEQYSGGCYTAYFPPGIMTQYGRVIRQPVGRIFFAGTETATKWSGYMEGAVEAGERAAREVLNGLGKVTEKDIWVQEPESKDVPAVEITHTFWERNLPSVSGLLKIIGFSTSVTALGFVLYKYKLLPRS
In words: Activity on recombinant human MAO-A, Amplex Red method, 0.5 mM tyramine substrate. The settings on record: read-out: Inhibitory Activity (IC50, nM) MAO-A. The method in brief:
as §1

Where [4] appears, read: 1 mM putrescine, * = between 10 and 100 nM, ** = between 300 and 1000 nM.

Structures can show the parent of a compound that is named as a salt. Where two headings read alike, the source gives them in different places.

Data on 10 molecules can be found in patent publication US11492335B2, “Aryl or heteroaryl triazolone derivatives or salts thereof, or pharmaceutical compositions comprising the same” (YUHAN CORPORATION, priority 2018, dated 2022).

Turning to `CC(=O)Nc1ccc(-c2cccc(-n3cnn(C/C(=C\F)CN)c3=O)c2)cc1` [Example 56, N-(3′-{1-[(2Z)-2-(aminomethyl)-3-fluoroprop-2-en-1-yl]-5-oxo-1,5-dihydro-4H-1,2,4-triazol-4-yl}biphenyl-4-yl)acetamide hydrochloride], the IC50 (as a rule, the concentration that gives 50% inhibition) at recombinant human VAP-1 (30 min preincubation at 37° C.) was 0.75 nM; in experiment [1] (setting [4]) it was 110 nM; in experiment [2] (1 mM benzylamine) it was > 10000 nM; in experiment [3] (0.5 mM tyramine), 5100 nM.
On the same counts, the results for `Cc1cc(-c2ccc(N3CCOCC3)nc2)cnc1-n1cnn(C/C(=C/F)CN)c1=O` [Example 149, 2-[(2E)-2-(aminomethyl)-3-fluoroprop-2-en-1-yl]-4-[5-methyl-6′-(morpholin-4-yl)-3,3′-bipyridin-6-yl]-2,4-dihydro-3H-1,2,4-triazol-3-one hydrochloride] are 0.5 nM, 490 nM, > 10000 nM and > 100000 nM.
On the same counts, the results for `NC/C(=C\F)Cn1ncn(-c2cccc(-c3ccc4cn[nH]c4c3)c2)c1=O` [Example 97, 2-[(2E)-2-(aminomethyl)-3-fluoroprop-2-en-1-yl]-4-[3-(1H-indazol-6-yl)phenyl]-2,4-dihydro-3H-1,2,4-triazol-3-one hydrochloride] are 0.68 nM, < 30 nM, > 10000 nM and 22500 nM.
In the case of `Cc1ccc(-c2cccc(-n3cnn(C/C(=C/F)CN)c3=O)c2)c2cccnc12` [Example 105, 2-[(2E)-2-(aminomethyl)-3-fluoroprop-2-en-1-yl]-4-[3-(8-methylquinolin-5-yl)phenyl]-2,4-dihydro-3H-1,2,4-triazol-3-one hydrochloride], the IC50 at recombinant human VAP-1 (30 min preincubation at 37° C.) came out at 0.83 nM; in experiment [1] (setting [4]) it was 180 nM; in experiment [2] (1 mM benzylamine) it was 9640 nM; in experiment [3] (0.5 mM tyramine), 65200 nM.
`NC/C(=C/F)Cn1ncn(-c2cccc(-c3ccc4c(c3)OCCO4)c2)c1=O` [Example 94, 2-[(2Z)-2-(aminomethyl)-3-fluoroprop-2-en-1-yl]-4-[3-(2,3-dihydro-1,4-benzodioxin-6-yl)phenyl]-2,4-dihydro-3H-1,2,4-triazol-3-one hydrochloride]: the IC50 at recombinant human VAP-1 (30 min preincubation at 37° C.) is 2 nM; in experiment [1] (setting [4]), 120 nM; in experiment [2] (1 mM benzylamine), 2630 nM; in experiment [3] (0.5 mM tyramine), > 100000 nM.
Consider `Cc1cc(-c2ccc3c(c2)NC(=O)CO3)cnc1-n1cnn(C/C(=C/F)CN)c1=O` [Example 155, 6-(6-{1-[(2E)-2-(aminomethyl)-3-fluoroprop-2-en-1-yl]-5-oxo-1,5-dihydro-4H-1,2,4-triazol-4-yl}-5-methylpyridin-3-yl)-2H-1,4-benzoxazin-3 (4H)-one hydrochloride], for which the IC50 amounted to 0.3 nM at recombinant human VAP-1, 87 nM in experiment [1] (1 mM putrescine substrate), 4400 nM in experiment [2] (1 mM benzylamine substrate) and 16000 nM in experiment [3] (0.5 mM tyramine substrate).
On the same counts, the results for `Cc1cc(-c2ccc3c(c2)NC(=O)OC3)cnc1-n1cnn(C/C(=C/F)CN)c1=O` [Example 156, 7-(6-{1-[(2E)-2-(aminomethyl)-3-fluoroprop-2-en-1-yl]-5-oxo-1,5-dihydro-4H-1,2,4-triazol-4-yl}-5-methylpyridin-3-yl)-1,4-dihydro-2H-3,1-benzoxazin-2-one hydrochloride] are 0.3 nM, 38 nM, 26000 nM and > 100000 nM.
The like results for `NC/C(=C/F)Cn1ncn(-c2ncc(-c3ccc4c(c3)OCO4)s2)c1=O` [Example 232, 2-[(2Z)-2-(aminomethyl)-3-fluoroprop-2-en-1-yl]-4-[5-(1,3-benzodioxol-5-yl)-1,3-thiazol-2-yl]-2,4-dihydro-3H-1,2,4-triazol-3-one hydrochloride] were, in that order, 0.78 nM, < 100 nM, < 100 nM and 24 nM.
Consider `NC/C(=C\F)Cn1ncn(-c2cccc(Br)n2)c1=O` [Example 37, 2-[(2E)-2-(aminomethyl)-3-fluoroprop-2-en-1-yl]-4-(6-bromopyridin-2-yl)-2,4-dihydro-3H-1,2,4-triazol-3-one], for which the IC50 was 1.8 nM at recombinant human VAP-1 (30 min preincubation at 37° C.), 16 nM in experiment [1] (setting [4]), > 10000 nM in experiment [2] (1 mM benzylamine) and > 100000 nM in experiment [3] (0.5 mM tyramine).
On the same counts, the results for `NC/C(=C\F)Cn1ncn(-c2ccc(-c3ccc(-c4nnc[nH]4)cc3)cc2F)c1=O` [Example 43, 2-[(2E)-2-(aminomethyl)-3-fluoroprop-2-en-1-yl]-4-[3-fluoro-4′-(4H-1,2,4-triazol-3-yl)biphenyl-4-yl]-2,4-dihydro-3H-1,2,4-triazol-3-one] are 0.62 nM, < 100 nM, 196 nM and > 100000 nM.
